Measurements as given in ChEMBL document CHEMBL1795217, “New vasorelaxant indole alkaloids, villocarines A-D from Uncaria villosa” (Bioorg Med Chem, 2011).
Activity calls are given as the source filed them.

Key:
[1] = system: Aorta; assay: Vasorelaxant activity in Wistar rat thoracic aortic rings with endothelium assessed as inhibition of phenylephrine-induced contraction at 30 uM measured 10 to 30 mins within compound dosing; type: functional, tissue-based
[2] = system: Aorta; assay: Vasorelaxant activity in endothelium denuded Wistar rat thoracic aortic rings assessed as inhibition of phenylephrine-induced contraction at 30 uM; type: functional, tissue-based
[3] = system: Aorta; assay: Vasorelaxant activity in endothelium denuded Wistar rat thoracic aortic rings assessed as inhibition of calcium-induced contraction at 30 uM in presence of Ca2+-free K+-rich medium; type: functional, tissue-based
[4] = system: Aorta; assay: Vasorelaxant activity in endothelium denuded Wistar rat thoracic aortic rings assessed as inhibition of phenylephrine-induced contraction at 30 uM in presence of Ca2+-free medium pre-incubated with 1 uM phenylephrine abd 1 uM nicardipine

Measured: Activity

C/C=C1/CN2CCc3c([nH]c4ccccc34)[C@H]2C[C@@H]1/C(=C\OC)C(=O)OC
active: [1] | [2] | [3] | [4]
